Measurements reported in patent US20240300976A1, “COMPOUNDS AS MODULATORS OF ENDOPLASMIC RETICULUM AMINOPEPTIDASE 1 (ERAP1)” (GREY WOLF THERAPEUTICS LIMITED, priority 2020, published 2024).
pIC50: −log10 of the molar value.

Key:
[1] = from C=CCOc1ccc(C(=O)OC)cc1S(=O)(=O)Nc1cc(C#N)c(Cl)cc1N1CCCCC1C=C; rcm bond; 12-membered ring; Hoveyda-Grubbs II (2 x 5 mol%); DCM; 56.3 mM; 88.0 h
[2] = biological target: T1, ERAP1 (Homo sapiens, UniProt Q9NZ08); assay: ERAP1 mediated hydrolysis of an amide substrate (10-mer inhibition assay), biochemical system; details: 10-mer substrate, incubated at 23° C. for 1 h, excitation 279 nm and emission 355 nm; read-out: IC50 vs Decapeptide WRVYEKC(Dnp)ALK-acid (where Dnp is Dinitrophenyl maleimide) (10-mer)
T1 construct: Purified ERAP1(37-941)-10His (ERAP1); 10His (C)
From the text: This peptide has minimal fluorescence as the N-terminal tryptophan residue's fluorescence is quenched by the dinitrophenol (DNP) residue within the peptide. However, as ERAP1 hydrolyses the N-terminal amide bond and tryptophan is released this internal quenching is lost and the reaction is monitored by the increase in tryptophan fluorescence over the course of the assay. For the purposes of this application this assay is referred to as the “1 Omer inhibition assay” and compound potencies are calculated and expressed as 1050 as would be familiar to a person skilled in the art.
Biological Assay 1: ERAP1 Mediated Hydrolysis of an Amide Substrate Measured in a Biochemical System
• 1× Assay buffer (AB): 25 mM Bis-tris propane, 0.05% w/v Hydroxypropylmethylcellulose pH 7.75 made with Optima grade water • Decapeptide WRVYEKC(Dnp)ALK-acid (where Dnp is Dinitrophenyl maleimide) (10-mer) • L-Leucine 7-amido-4-methylcoumarin (L-AMC) • Purified ERAP1(37-941)-10His (ERAP1)
12.5 μL ERAP1 enzyme in 1×AB was combined with 250 nL test compound in DMSO. 12.5 μL of either 240 μM L-AMC in 1×AB or 100 μM 10-mer in 1×AB was added to the reaction and incubated at 23° C. for 1 h. For detection, plates were read at excitation 365 nm and emission 442 nm (L-AMC) or excitation 279 nm and emission 355 nm (10-mer). Compound IC50 was determined using a 4-parameter equation.

T1 sequence (Q9NZ08 37-941): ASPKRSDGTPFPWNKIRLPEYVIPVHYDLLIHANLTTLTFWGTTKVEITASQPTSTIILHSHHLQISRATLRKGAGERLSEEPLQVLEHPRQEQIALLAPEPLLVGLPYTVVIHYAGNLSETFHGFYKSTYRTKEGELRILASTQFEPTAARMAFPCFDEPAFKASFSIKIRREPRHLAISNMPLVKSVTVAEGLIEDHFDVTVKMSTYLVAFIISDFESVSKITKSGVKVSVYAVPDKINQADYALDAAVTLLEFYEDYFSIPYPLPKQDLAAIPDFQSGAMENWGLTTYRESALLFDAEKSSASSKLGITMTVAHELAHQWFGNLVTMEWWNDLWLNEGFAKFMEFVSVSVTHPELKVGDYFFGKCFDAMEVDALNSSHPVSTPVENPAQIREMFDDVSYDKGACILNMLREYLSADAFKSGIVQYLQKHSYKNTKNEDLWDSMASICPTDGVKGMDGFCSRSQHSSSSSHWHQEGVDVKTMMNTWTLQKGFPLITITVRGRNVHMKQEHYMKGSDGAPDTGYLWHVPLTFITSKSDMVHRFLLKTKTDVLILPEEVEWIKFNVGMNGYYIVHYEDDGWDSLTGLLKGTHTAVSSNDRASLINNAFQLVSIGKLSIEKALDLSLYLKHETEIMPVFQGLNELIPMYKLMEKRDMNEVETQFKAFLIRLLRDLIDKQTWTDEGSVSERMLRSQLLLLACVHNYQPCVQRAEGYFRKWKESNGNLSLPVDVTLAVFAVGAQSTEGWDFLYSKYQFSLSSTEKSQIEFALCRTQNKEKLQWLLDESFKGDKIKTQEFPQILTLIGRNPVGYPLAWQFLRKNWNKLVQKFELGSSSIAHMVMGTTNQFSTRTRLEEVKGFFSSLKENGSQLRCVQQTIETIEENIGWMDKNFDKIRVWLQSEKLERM

Row | Structure (SMILES) | ring closure, isolated yield [1] | pIC50 [2]
1 | COC(=O)c1ccc2c(c1)S(=O)(=O)Nc1cc(C#N)c(Cl)cc1N1CCCCC1C=CCO2 (centres unmarked) | 25% | 
2 | N#Cc1cc2c(cc1Cl)N1CCCCC1C/C=C/COc1ccc(C(=O)O)cc1S(=O)(=O)N2 (single isomer, unassigned) [Example 46, (E)-3-chloro-2-cyano-7,8,9,9a,10,13-hexahydro-6H, 20H-dibenzo[b,f]pyrido[1,2-h][1]oxa[4]thia[5,8]diazacyclotridecine-17-carboxylic acid 19,19-dioxide] |  | > 6.60
3 | N#Cc1cc2c(cc1Cl)N1CCCCC1/C=C/COc1ccc(C(=O)O)cc1S(=O)(=O)N2 (single isomer, unassigned) [Example 47, (E)-3-chloro-2-cyano-6,7,8,9,9a,12-hexahydro-19H-dibenzo[b,f]pyrido[1,2-h][1]oxa[4]thia[5,8]diazacyclododecine-16-carboxylic acid 18,18-dioxide] |  | 6.00 to 6.60
4 | N#Cc1cc2c(cc1Cl)N1CCCCC1/C=C/COc1ccc(C(=O)O)cc1S(=O)(=O)N2 (single isomer, unassigned) [Example 48, (E)-3-chloro-2-cyano-6,7,8,9,9a,12-hexahydro-19H-dibenzo[b,f]pyrido[1,2-h][1]oxa[4]thia[5,8]diazacyclododecine-16-carboxylic acid 18,18-dioxide] |  | > 6.60
5 | CS(=O)(=O)c1ccc2c(c1)NS(=O)(=O)c1cc(C(=O)O)ccc1OCCCC1CCCCN21 (single isomer, unassigned) [Example 49, 2-(methylsulfonyl)-6,7,8,9,9a,10,11,12-octahydro-19H-dibenzo[b,f]pyrido[1,2-h][1]oxa[4]thia[5,8]diazacyclododecine-16-carboxylic acid 18,18-dioxide] |  | > 6.60
6 | CS(=O)(=O)c1ccc2c(c1)NS(=O)(=O)c1cc(C(=O)O)ccc1OCCCC1CCCCN21 (single isomer, unassigned) [Example 50, 2-(methylsulfonyl)-6,7,8,9,9a,10,11,12-octahydro-19H-dibenzo[b,f]pyrido[1,2-h][1]oxa[4]thia[5,8]diazacyclododecine-16-carboxylic acid 18,18-dioxide] |  | 6.00 to 6.60
7 | N#Cc1cc2c(cc1F)N1CCCCC1CCCCOc1ccc(C(=O)O)cc1S(=O)(=O)N2 (single isomer, unassigned) [Example 55, 2-cyano-3-fluoro-7,8,9,9a,10,11,12,13-octahydro-6H,20H-dibenzo[b,f]pyrido[1,2-h][1]oxa[4]thia[5,8]diazacyclotridecine-17-carboxylic acid 19,19-dioxide] |  | > 6.60
8 | N#Cc1cc2c(cc1F)N1CCCCC1CCCCOc1ccc(C(=O)O)cc1S(=O)(=O)N2 (single isomer, unassigned) [Example 56, 2-cyano-3-fluoro-7,8,9,9a,10,11,12,13-octahydro-6H,20H-dibenzo[b,f]pyrido[1,2-h][1]oxa[4]thia[5,8]diazacyclotridecine-17-carboxylic acid 19,19-dioxide] |  | > 6.60
9 | CS(=O)(=O)NC(=O)c1ccc2c(c1)S(=O)(=O)Nc1cc(C#N)c(Cl)cc1N1CCCC[C@H]1/C=C/CO2 (single isomer, unassigned) [Example 58] |  | < 6.00
10 | CS(=O)(=O)NC(=O)c1ccc2c(c1)S(=O)(=O)Nc1cc(C#N)c(Cl)cc1N1CCCCC1C/C=C/CO2 (single isomer, unassigned) [Example 62] |  | < 6.00
11 | N#Cc1cc2c(cc1Cl)N1CCCC[C@@H]1COCCOc1ccc(C(=O)O)cc1S(=O)(=O)N2 (single isomer, unassigned) [Example 67] |  | > 6.60
12 | N#Cc1cc2c(cc1Cl)N1CCCC[C@H]1COCCOc1ccc(C(=O)O)cc1S(=O)(=O)N2 (single isomer, unassigned) [Example 68] |  | > 6.60
13 | N#Cc1ccc2c(c1)NS(=O)(=O)c1cc(C(=O)O)ccc1OCCCC1CCCCN21 (centres unmarked) [Example 5, 2-cyano-6,7,8,9,9a,10,11,12-octahydro-19H-dibenzo[b,f]pyrido[1,2-h][1]oxa[4]thia[5,8]diazacyclododecine-16-carboxylic acid 18,18-dioxide] |  | > 6.60
14 | N#Cc1cc2c(cc1Cl)N1CCCC[C@@H]1CCCCOc1ccc(C(=O)O)cc1S(=O)(=O)N2 [Example 52, (R)-3-chloro-2-cyano-7,8,9,9a,10,11,12,13-octahydro-6H,20H-dibenzo[b,f]pyrido[1,2-h][1]oxa[4]thia[5,8]diazacyclotridecine-17-carboxylic acid 19,19-dioxide] |  | > 6.60
15 | N#Cc1cc2c(cc1Cl)N1CCCC[C@H]1CCCCOc1ccc(C(=O)O)cc1S(=O)(=O)N2 [Example 53, (S)-3-chloro-2-cyano-7,8,9,9a,10,11,12,13-octahydro-6H, 20H-dibenzo[b,f]pyrido[1,2-h][1]oxa[4]thia[5,8]diazacyclotridecine-17-carboxylic acid 19,19-dioxide] |  | > 6.60
16 | N#Cc1cc2c(cc1F)N1CCCC[C@H]1CCCCOc1ccc(C(=O)O)cc1S(=O)(=O)N2 [Example 57, (S)-2-cyano-3-fluoro-7,8,9,9a,10,11,12,13-octahydro-6H, 20H-dibenzo[b,f]pyrido[1,2-h][1]oxa[4]thia[5,8]diazacyclotridecine-17-carboxylic acid 19,19-dioxide] |  | > 6.60
17 | N#Cc1cc2c(cc1Cl)N1CCCC[C@@H]1CCCOc1ccc(C(=O)O)cc1S(=O)(=O)N2 [Example 59, (R)-3-chloro-2-cyano-6,7,8,9,9a,10,11,12-octahydro-19H-dibenzo[b,f]pyrido[1,2-h][1]oxa[4]thia[5,8]diazacyclododecine-16-carboxylic acid 18,18-dioxide] |  | > 6.60
18 | N#Cc1cc2c(cc1Cl)N1CCCC[C@H]1CCCOc1ccc(C(=O)O)cc1S(=O)(=O)N2 [Example 60, (S)-3-chloro-2-cyano-6,7,8,9,9a,10,11,12-octahydro-19H-dibenzo[b,f]pyrido[1,2-h][1]oxa[4]thia[5,8]diazacyclododecine-16-carboxylic acid 18,18-dioxide] |  | > 6.60
19 | N#Cc1cc2c(cc1Cl)N1CCCC[C@H]1C/C=C/COc1ccc(C(=O)O)cc1S(=O)(=O)N2 [Example 61, (S,E)-3-chloro-2-cyano-7,8,9,9a,10,13-hexahydro-6H, 20H-dibenzo[b,f]pyrido[1,2-h][1]oxa[4]thia[5,8]diazacyclotridecine-17-carboxylic acid 19,19-dioxide] |  | > 6.60
20 | CS(=O)(=O)NC(=O)c1ccc2c(c1)S(=O)(=O)Nc1cc(C#N)c(F)cc1N1CCCC[C@H]1CCCCO2 [Example 63, (S)-2-cyano-3-fluoro-N-(methylsulfonyl)-7,8,9,9a,10,11,12,13-octahydro-6H, 20H-dibenzo[b,f]pyrido[1,2-h][1]oxa[4]thia[5,8]diazacyclotridecine-17-carboxamide 19,19-dioxide] |  | < 6.00
21 | CS(=O)(=O)NC(=O)c1ccc2c(c1)S(=O)(=O)Nc1cc(C#N)c(Cl)cc1N1CCCC[C@H]1CCCO2 [Example 64, (S)-3-chloro-2-cyano-N-(methylsulfonyl)-6,7,8,9,9a,10,11,12-octahydro-19H-dibenzo[b,f]pyrido[1,2-h][1]oxa[4]thia[5,8]diazacyclododecine-16-carboxamide 18,18-dioxide] |  | < 6.00
22 | N#Cc1cc2c(cc1Cl)N1CCCC[C@H]1COCCOc1ccc(C(=O)O)cc1S(=O)(=O)N2 [Example 69, (S)-3-chloro-2-cyano-6,7,8,9,9a,10,12,13-octahydro-20H-dibenzo[e,i]pyrido[1,2-k][1,4]dioxa[7]thia[8,11]diazacyclotridecine-17-carboxylic acid 19,19-dioxide] |  | > 6.60
23 | N#Cc1cc2c(cc1Cl)N1CCCC[C@H]1COC/C=C/c1ccc(C(=O)O)cc1S(=O)(=O)N2 [Example 70, (S,E)-3-chloro-2-cyano-6,7,8,9,9a,10-hexahydro-12H, 20H-dibenzo[e,i]pyrido[2,1-c][1]oxa[8]thia[4,7]diazacyclotridecine-17-carboxylic acid 19,19-dioxide] |  | > 6.60
24 | N#Cc1cc2c(cc1Cl)N1CCCC[C@H]1CCC/C=C/c1ccc(C(=O)O)cc1S(=O)(=O)N2 [Example 71, (R,E)-3-chloro-2-cyano-6,7,8,9,9a,10,11,12-octahydro-20H-dibenzo[c,l]pyrido[1,2-e][1]thia[2,5]diazacyclotridecine-17-carboxylic acid 19,19-dioxide] |  | 6.00 to 6.60
25 | N#Cc1cc2c(cc1Cl)N1CCCC[C@H]1CCCCCc1ccc(C(=O)O)cc1S(=O)(=O)N2 [Example 72, (R)-3-chloro-2-cyano-6,7,8,9,9a,10,11,12,13,14-decahydro-20H-dibenzo[c,l]pyrido[1,2-e][1]thia[2,5]diazacyclotridecine-17-carboxylic acid 19,19-dioxide] |  | > 6.60
26 | N#Cc1cc2c(cc1Cl)N1CCCC[C@H]1COCCCc1ccc(C(=O)O)cc1S(=O)(=O)N2 [Example 73, (S)-3-chloro-2-cyano-6,7,8,9,9a,10,13,14-octahydro-12H, 20H-dibenzo[e,i]pyrido[2,1-c][1]oxa[8]thia[4,7]diazacyclotridecine-17-carboxylic acid 19,19-dioxide] |  | > 6.60
